This note sets out measurements from paper PMC5080441, “A direct-sensing galactose chemoreceptor recently evolved in invasive strains of Campylobacter jejuni” (Nature Communications, 2016).

The target in this test is Tlp11 (CcrG, Campylobacter ChemoReceptor for Galactose). Put plainly: SPR (Biacore); STD-NMR. It is filed as binding, Campylobacter jejuni. (Surface plasmon resonance follows binding to a sensor surface in real time, without labels.)

The Kd is the concentration at which binding is half-saturated. Low readings indicate a tighter complex, high ones a looser complex.

Structures are written as SMILES.

In turn, `OC[C@H]1OC(O)[C@H](O)[C@@H](O)[C@H]1O` (stereo partly shown) [galactose] returned a Kd of 17 µM.
